Like-named read-outs stand apart in the source and are kept apart here.
Columns and labels:
[1] = test system: cancer of the parotid gland; conditions: one patient; ganetespib 150 mg/m^2 with docetaxel 75 mg/m^2; cited from earlier work
[2] = test system: wide range of cancer types; conditions: cited from earlier work
[3] = test system: advanced relapsed/refractory NSCLC; conditions: cited from earlier work
solid tumors = conditions: once-weekly dosing; cited from earlier work
[4] = test system: HCT116 tumors vs 786O tumors; assay: response of hypoxic vs non-hypoxic tumors; format: in vivo, nude mice; conditions: doses as in the 3rd table
[5] = test system: metastatic pancreatic cancer; conditions: cited from earlier work
[6] = test system: 786-O human renal carcinoma xenograft; assay: 786-O xenograft model (non-hypoxic tumor); format: in vivo, nude mice
Protocol: (§1) Human tumor cell lines HCT116 (ATCC #CRL-247; Schroy PC, et al. Cancer 76:201-209, 1995) and 786-O (ATCC #CRL-1932; Williams RD, et al. In Vitro 12:623-627, 1976), were obtained from the American Type Culture Collection (Manassus, Va., USA) were cultured using routine methods until a sufficient number of cells were obtained for implantation. Studies were conducted on animals between 7 and 12 weeks of age at implantation. To implant HCT116 tumor cells into nude mice, the cells were trypsinized, washed in PBS and resuspended at a concentration of 75×10^6 cells/ml in McCoy's modified medium with 50% of BD Matrigel® Basement Membrane Matrix (BD Biosciences®, Bedford, Mass., USA). To implant 786-O tumor cells into nude mice, the cells were trypsinized as above, washed in PBS and resuspended at a concentration of 75×10^6 cells/ml in RPMI 1640 medium with 50% of BD Matrigel® Basement Membrane Matrix. Using a 27 gauge needle and 1 cc syringe, 0.1 ml of the cell suspension was injected into the corpus adiposum of nude mice. The corpus adiposum is a fat body located in the ventral abdominal vicera in the right quadrant of the abdomen at the juncture of the os coxae (pelvic bone) and the os femoris (femur). The location permits palpation and measurement of the tumors using external calipers. Tumor volumes (V) were calculated by caliper measurement of the width (W), length (L) and thickness (T) of tumors using the following formula: V=0.5236×(L×W×T). Animals were randomized into treatment groups so that the average tumor volumes of each group were similar at the start of dosing.
(§2) A tumor model in which the tumors have relatively high and low levels of LDH5, indicating high and low levels of hypoxia, using human tumor cell lines HCT116 and 786-O was established as set forth in the previous example.
(§3) As above, HCT116 and 786-O cells were cultured and implanted into nude mice using the methods in the previous example. Tumor growth was measured using calipers. Prior to treatment with the various agents, tumors were permitted to develop in vivo until they reached approximately 150 mm^3 in volume, which typically required 2-3 weeks following implantation. Animals were randomized into treatment groups so that the average tumor volumes of each group were similar at the start of dosing.
(§4) Tumor volume was monitored throughout the course of the study, until up to about 40 days from the date of tumor implantation. The exact number of days of the study depended on a number of factors including, for example, the number of days from implantation for the tumors to reach the desired volume.

[7] = test system: metastatic colorectal cancer; conditions: cited from earlier work
glioblastoma [8] = conditions: 85 patients treated with bevacizumab alone; cited from earlier work
[9] = test system: HCT116 human colon carcinoma xenograft; assay: HCT116 xenograft model (hypoxic tumor); format: in vivo, nude mice
Protocol: as §1, §2, §3, §4

[10] = test system: metastatic colorectal cancer; conditions: cited from earlier work; remark: listed apart in the source
[11] = test system: HER2-negative, metastatic breast cancer; conditions: added to standard chemotherapy; cited from earlier work
[12] = test system: advanced non-squamous, non-small cell lung cancer (NSCLC); conditions: bevacizumab arm = with paclitaxel and carboplatin; comparator chemotherapy alone; statistically significant; cited from earlier work
glioblastoma [13] = conditions: 56 patients treated with bevacizumab alone; cited from earlier work
renal cancer = conditions: cited from earlier work

CC(C)c1cc(-c2nnc(O)n2-c2ccc3c(ccn3C)c2)c(O)cc1O [ganetespib]
shrinkage of target tumor lesions, confirmed partial response [1]: over 50%
activity against cancers resistant to imatinib, sunitinib, erlotinib and dasatinib [2]: potent activity
activity against a wide range of cancer types ([2]; lung, prostate, colon, breast, gastric, pancreatic, GIST, melanoma, AML, CML, lymphomas, multiple myeloma, in vitro and in vivo models): potent activity
patients with durable, objective responses ([3]; ALK rearrangement, four patients): 50%
patients who received ganetespib for 16 weeks or more ([3]; ALK rearrangement, seven of eight): 88%
patients with tumor shrinkage ([3]; ALK rearrangement, six of eight patients): 75%
disease control rate ([3]; broad population): 54%
hepatic and ocular toxicities ([3]; compared with other Hsp90 inhibitors): did not have the serious hepatic or common ocular toxicities
tolerability ([3]; in vivo): well tolerated
patients with tumor shrinkage ([3]; tumors with a KRAS mutation): 62%
evaluable patients with disease control (solid tumors): more than half
outcome in several patients who had progressed or failed multiple prior therapies (solid tumors): substantial tumor shrinkage and prolonged disease control
effectiveness at slowing tumor growth in tumors with high levels of hypoxia (HCT116) compared with low levels (786O) [4]: not found to work better

bevacizumab: recombinant humanized monoclonal IgG1 antibody that binds to and inhibits human vascular endothelial growth factor (VEGF)
progression free survival HR ([5]; bevacizumab vs placebo arm, both with gemcitabine and erlotinib, 95% CI 0.61 to 0.96, P=0.0002): 0.73
median overall survival ([5]; bevacizumab, gemcitabine and erlotinib, 306 patients): 7.1 months
tumor burden as compared to control ([6]; bevacizumab higher dose (4 mg/kg) i.p., p=0.011): greatest tumor burden
tumor burden as compared to control ([6]; low dose bevacizumab (1 mg/kg) i.p., p=0.437): no significant difference in tumor burden
median survival ([7]; bevacizumab and 5-FU/Leucovorin (n=249) vs IFL regimen alone): 17.9 months
progression-free survival ([7]; bevacizumab plus 5-FU/Leucovorin vs IFL regimen alone): 8.7 months
patients whose tumors shrank (glioblastoma [8]): 26%
tumor growth as compared to control ([9]; bevacizumab higher dose (4 mg/kg) i.p., p=0.0424): reduced the growth of the tumor
tumor growth as compared to control ([9]; bevacizumab lower concentration (1 mg/kg) i.p., p=0.1274): small trend to decreased tumor growth
effectiveness at slowing tumor growth in tumors with high levels of hypoxia (HCT116) compared with low levels (786O) [4]: more effective
median survival ([10]; bevacizumab arm = bevacizumab plus 5-FU/Leucovorin, comparator 5-FU/Leucovorin alone, not statistically significant): 16.6 months
improvement in median survival ([10]; bevacizumab plus 5-FU/Leucovorin vs 5-FU/Leucovorin alone): 29%
keeping cancer from worsening [11]: does not keep cancer from worsening for a long enough time to be clinically meaningful
median overall survival [12]: 12.5 months
patients who responded (glioblastoma [13]): 20%
patients with decreased tumor size (renal cancer; bevacizumab arm = with interferon-alpha, comparator interferon-alpha alone): 30%
increase in progression-free survival time compared to interferon-alpha alone (renal cancer; bevacizumab with interferon-alpha): about 5 months
